According to patent US8362256B2, “Salts of N-[4-(1-cyanocyclopentyl)phenyl]-2-(4-pyridylmethyl)amino-3-pyridinecarboxamide” (Jiangsu Hengrui Medicine Co. Ltd., priority 2008, dated 2013):
Marks after values point to notes of the source that are not given here.

Columns and labels:
[1] = molecular target: KDR (Homo sapiens, UniProt P35968); test: ELISA tyrosine kinase inhibition; assay type: biochemical; details: average of 3 experiments; read-out: IC50 ± SD, KDR
Protocol: (§1) Phosphorylation of substrate was determined with monoclonal antibody of anti-phosphorylation tyrosine (PY99). Goat anti-mouse IgG marked with HRP was then added, and the degree of phosphorylation of substrate was determined with OPD coloration. At the same time, the control group without tyrosine kinase and control wells of corresponding DMSO concentration were set up. 2 M of H2SO4 was added in 50 μl/well to terminate the reaction. Data was read with adjustable wavelength micro plate enzyme-labeling instrument VERSAmax (Sunnyvale, Calif., U.S.A.), followed by visualization reaction, OD490 nm value was then observed. […] Relative inhibition rate of drugs on tyrosine kinase protein was determined.

[2] = molecular target: c-Kit (Homo sapiens, UniProt P10721); test: ELISA tyrosine kinase inhibition; assay type: biochemical; details: average of 3 experiments; read-out: IC50 ± SD, c-Kit
Protocol: as §1

[3] = Stability in different conditions, content by HPLC; assay type: physicochemical
[4] = tested on: human colon cancer HT-29; test: Efficacy on human colon cancer HT-29 transplanted in nude mice; details: for Weight after Removing Tumor, d0 / TV x ± SD, d0: d0 baseline; for RTV x ± SD / T/C / TV x ± SD, dn: dn 21 days; for Weight after Removing Tumor, dn: dn 21 days after first administration
Protocol: BALB/cA-nude mice, ♀, 5-6 weeks-old, purchased from Shanghai Slaccas experimental animals limited liability company. […] Rearing environment: SPF grade.
After one week adaption, the experimental animals were subcutaneously inoculated with human colon cancer HT-29 tumor tissues. When the tumors grew to 100-300 mm^3, the animals were randomly divided into several groups. […] Volume of tumors and weight of mice were measured 2-3 times every week, the data of which were recorded. The equation for the calculation of volume of tumors (V) is: V=½×a×b^2 wherein a, b represent length and width, respectively.

[5] = molecular target: EGFR1 (Homo sapiens, UniProt P00533); test: ELISA tyrosine kinase inhibition; assay type: biochemical
Sequence of EGFR1 (P00533 25-1210): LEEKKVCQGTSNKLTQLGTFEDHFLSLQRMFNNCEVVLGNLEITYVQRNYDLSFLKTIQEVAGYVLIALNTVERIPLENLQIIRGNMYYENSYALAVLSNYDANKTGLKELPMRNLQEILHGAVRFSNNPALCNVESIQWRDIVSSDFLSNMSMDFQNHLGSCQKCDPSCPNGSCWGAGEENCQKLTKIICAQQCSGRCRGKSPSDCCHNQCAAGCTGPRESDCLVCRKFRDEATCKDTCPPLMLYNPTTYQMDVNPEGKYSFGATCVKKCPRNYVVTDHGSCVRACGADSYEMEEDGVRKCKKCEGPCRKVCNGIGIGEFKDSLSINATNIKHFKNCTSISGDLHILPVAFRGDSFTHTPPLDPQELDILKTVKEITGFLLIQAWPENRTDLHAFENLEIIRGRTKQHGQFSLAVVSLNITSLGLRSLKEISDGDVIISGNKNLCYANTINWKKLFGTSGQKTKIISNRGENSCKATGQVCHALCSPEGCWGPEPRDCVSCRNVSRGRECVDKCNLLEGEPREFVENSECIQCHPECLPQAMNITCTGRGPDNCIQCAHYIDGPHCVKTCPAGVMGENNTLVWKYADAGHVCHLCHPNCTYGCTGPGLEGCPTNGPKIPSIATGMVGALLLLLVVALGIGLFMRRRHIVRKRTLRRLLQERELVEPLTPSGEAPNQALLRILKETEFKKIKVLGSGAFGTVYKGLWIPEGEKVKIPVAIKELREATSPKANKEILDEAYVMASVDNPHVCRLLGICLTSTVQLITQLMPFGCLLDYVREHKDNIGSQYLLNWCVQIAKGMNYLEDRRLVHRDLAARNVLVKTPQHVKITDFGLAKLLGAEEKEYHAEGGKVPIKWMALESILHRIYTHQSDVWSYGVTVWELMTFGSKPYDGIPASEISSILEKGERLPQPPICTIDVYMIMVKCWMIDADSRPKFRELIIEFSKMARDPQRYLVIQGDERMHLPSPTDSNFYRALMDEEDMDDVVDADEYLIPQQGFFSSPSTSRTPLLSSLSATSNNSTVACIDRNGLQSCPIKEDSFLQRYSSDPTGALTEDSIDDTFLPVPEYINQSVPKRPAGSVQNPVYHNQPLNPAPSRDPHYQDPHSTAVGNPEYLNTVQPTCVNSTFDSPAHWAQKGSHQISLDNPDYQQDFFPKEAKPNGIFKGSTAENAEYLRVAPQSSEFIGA
Protocol: (§2) Phosphorylation of substrate was determined with monoclonal antibody of anti-phosphorylation tyrosine (PY99). Goat anti-mouse IgG marked with HRP was then added, and the degree of phosphorylation of substrate was determined with OPD coloration. At the same time, the control group without tyrosine kinase and control wells of corresponding DMSO concentration were set up. 2 M of H2SO4 was added in 50 μl/well to terminate the reaction. Data was read with adjustable wavelength micro plate enzyme-labeling instrument VERSAmax (Sunnyvale, Calif., U.S.A.), followed by visualization reaction, OD490 nm value was then observed.
(§3) Relative inhibition rate of drugs on tyrosine kinase protein was determined.

[6] = molecular target: Flt1 (Homo sapiens, UniProt P17948); test: ELISA tyrosine kinase inhibition; assay type: biochemical; details: average of 3 experiments; read-out: IC50 ± SD, Flt1
Sequence of Flt1 (P17948 27-1338, species assumed): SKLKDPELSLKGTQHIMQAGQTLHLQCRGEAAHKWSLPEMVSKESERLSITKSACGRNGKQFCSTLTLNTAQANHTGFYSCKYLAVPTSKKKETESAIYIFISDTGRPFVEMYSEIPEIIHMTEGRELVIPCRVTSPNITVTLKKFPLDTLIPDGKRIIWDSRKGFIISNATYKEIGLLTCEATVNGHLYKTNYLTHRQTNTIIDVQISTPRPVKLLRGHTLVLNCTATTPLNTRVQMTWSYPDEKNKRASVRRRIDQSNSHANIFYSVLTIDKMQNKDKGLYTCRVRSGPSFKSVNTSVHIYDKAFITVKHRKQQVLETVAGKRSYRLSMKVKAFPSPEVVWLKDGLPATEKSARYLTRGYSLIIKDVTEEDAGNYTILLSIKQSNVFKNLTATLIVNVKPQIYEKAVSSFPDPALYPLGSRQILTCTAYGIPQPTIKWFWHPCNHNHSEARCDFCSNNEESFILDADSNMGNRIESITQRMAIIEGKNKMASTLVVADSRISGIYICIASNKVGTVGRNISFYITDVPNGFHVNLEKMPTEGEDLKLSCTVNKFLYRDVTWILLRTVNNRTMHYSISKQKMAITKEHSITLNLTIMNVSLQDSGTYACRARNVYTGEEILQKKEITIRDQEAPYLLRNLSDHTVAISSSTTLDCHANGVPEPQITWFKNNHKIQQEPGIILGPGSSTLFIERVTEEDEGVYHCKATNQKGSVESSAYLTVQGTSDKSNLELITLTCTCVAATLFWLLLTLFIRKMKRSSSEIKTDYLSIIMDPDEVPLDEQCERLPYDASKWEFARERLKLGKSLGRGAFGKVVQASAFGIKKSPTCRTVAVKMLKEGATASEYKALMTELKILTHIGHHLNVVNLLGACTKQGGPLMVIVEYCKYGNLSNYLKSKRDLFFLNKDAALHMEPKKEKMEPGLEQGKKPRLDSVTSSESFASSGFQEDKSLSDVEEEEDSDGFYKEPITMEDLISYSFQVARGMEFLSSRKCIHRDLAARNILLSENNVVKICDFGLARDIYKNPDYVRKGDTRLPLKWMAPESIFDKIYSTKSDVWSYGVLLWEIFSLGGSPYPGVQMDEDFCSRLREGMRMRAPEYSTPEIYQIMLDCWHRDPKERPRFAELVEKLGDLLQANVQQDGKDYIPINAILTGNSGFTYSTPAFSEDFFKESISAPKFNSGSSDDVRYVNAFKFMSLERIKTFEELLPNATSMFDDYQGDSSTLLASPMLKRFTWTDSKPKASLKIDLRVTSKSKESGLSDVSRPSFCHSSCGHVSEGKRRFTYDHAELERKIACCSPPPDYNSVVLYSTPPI
Protocol: as §2, §3

[7] = molecular target: PDGFRβ (Homo sapiens, UniProt P09619); test: ELISA tyrosine kinase inhibition; assay type: biochemical; details: average of 3 experiments; read-out: IC50 ± SD, PDGFRβ
Protocol: as §2, §3

[8] = molecular target: ErbB2 (Homo sapiens, UniProt P04626); test: ELISA tyrosine kinase inhibition; assay type: biochemical
Sequence of ErbB2 (P04626 23-1255, species assumed): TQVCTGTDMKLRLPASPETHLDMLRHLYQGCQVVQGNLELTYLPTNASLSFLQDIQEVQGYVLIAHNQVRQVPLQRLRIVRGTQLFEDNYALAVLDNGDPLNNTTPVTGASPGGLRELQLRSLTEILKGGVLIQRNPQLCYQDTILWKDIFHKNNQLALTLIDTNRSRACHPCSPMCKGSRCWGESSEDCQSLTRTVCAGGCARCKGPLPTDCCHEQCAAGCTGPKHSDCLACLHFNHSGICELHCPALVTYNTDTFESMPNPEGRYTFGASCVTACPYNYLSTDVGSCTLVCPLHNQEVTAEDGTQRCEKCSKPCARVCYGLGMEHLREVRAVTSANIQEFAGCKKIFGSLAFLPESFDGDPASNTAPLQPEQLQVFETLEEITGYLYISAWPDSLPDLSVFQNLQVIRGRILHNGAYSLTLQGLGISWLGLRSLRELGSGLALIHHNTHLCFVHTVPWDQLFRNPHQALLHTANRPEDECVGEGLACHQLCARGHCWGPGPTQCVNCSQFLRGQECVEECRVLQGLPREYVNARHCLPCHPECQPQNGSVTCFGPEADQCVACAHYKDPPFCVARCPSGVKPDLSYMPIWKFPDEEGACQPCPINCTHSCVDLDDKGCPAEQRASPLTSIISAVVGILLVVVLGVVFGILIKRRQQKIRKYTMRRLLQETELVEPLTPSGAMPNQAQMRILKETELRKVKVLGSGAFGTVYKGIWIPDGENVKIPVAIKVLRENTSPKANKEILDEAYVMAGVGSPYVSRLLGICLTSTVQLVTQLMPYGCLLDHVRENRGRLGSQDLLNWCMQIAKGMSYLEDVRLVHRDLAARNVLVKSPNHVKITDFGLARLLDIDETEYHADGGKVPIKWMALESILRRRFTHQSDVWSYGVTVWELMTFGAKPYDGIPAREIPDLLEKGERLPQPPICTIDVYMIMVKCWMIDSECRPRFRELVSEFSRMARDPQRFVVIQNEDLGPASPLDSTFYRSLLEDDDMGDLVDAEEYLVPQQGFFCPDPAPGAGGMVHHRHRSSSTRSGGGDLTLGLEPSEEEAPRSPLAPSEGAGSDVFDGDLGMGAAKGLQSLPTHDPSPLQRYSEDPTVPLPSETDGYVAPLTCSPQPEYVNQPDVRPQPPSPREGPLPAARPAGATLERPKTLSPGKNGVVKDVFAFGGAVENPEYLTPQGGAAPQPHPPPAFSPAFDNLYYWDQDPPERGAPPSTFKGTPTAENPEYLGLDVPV
Protocol: as §2, §3

[9] = molecular target: c-Src (Homo sapiens, UniProt P12931); test: ELISA tyrosine kinase inhibition; assay type: biochemical; details: average of 3 experiments; read-out: IC50 ± SD, c-Src
Sequence of c-Src (P12931 whole entry, species assumed): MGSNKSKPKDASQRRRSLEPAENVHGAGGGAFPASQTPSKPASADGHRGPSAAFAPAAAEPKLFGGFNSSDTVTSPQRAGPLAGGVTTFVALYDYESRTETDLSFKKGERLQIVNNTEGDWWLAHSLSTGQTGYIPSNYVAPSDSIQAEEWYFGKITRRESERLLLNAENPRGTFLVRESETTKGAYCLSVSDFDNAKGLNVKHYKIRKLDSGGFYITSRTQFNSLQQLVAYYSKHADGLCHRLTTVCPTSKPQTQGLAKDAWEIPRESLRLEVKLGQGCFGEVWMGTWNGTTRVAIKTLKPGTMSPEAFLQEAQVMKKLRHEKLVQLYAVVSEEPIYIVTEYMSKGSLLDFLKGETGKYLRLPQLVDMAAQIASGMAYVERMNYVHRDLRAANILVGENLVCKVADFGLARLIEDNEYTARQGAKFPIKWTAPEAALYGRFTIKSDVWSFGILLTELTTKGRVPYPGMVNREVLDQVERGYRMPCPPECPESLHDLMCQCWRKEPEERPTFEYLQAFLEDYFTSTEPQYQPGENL
Protocol: as §2, §3

[10] = molecular target: FGFR1 (Homo sapiens, UniProt P11362); test: ELISA tyrosine kinase inhibition; assay type: biochemical
Sequence of FGFR1 (P11362 22-822, species assumed): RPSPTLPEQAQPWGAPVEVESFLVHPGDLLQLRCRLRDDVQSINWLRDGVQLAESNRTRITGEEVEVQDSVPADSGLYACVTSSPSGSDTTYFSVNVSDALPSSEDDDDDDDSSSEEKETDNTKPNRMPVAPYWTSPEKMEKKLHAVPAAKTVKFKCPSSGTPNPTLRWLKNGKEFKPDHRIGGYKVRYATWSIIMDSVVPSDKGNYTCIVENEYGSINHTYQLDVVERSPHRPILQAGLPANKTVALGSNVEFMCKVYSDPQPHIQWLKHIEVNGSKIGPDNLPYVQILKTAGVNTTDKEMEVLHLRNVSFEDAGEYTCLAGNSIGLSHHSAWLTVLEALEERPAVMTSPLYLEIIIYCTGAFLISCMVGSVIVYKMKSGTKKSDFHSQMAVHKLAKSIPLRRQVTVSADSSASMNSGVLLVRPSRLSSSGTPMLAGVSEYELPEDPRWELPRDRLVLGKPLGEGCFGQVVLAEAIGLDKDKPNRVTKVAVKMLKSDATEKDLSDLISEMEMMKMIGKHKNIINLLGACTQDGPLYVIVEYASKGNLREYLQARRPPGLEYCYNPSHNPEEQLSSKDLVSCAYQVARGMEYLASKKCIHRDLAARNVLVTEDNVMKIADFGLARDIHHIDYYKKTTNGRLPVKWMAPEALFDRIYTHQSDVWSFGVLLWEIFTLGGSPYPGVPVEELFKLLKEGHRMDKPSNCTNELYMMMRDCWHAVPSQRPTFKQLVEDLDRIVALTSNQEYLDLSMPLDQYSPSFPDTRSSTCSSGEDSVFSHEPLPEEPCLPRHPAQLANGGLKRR
Protocol: as §2, §3

[11] = in vivo; details: male, Sprague-Dawley, rat, po; for MRT: MRT of compound A; for Tmax: Tmax of compound A
Excerpt: Male Sprague-Dawley (SD) rats (weight: about 250 g, experimental animal certification of fitness: 0006473) were purchased from Shanghai Slaccas experimental animals limited liability company (certification number: SCXK (Hu) 2003-0003). The relevant qualifications and state of health of the SD rats were checked first, and the eligible ones were placed into the clean grade chambers of rats in Shanghai institute of Materia Medica.
I. Analysis Condition of LC/MS/MS
Analysis Condition of Liquid Chromatography
Chromatographic column: Agilent Zorbax SB-C18 column (50 mm×2.1 mm ID);
Column temperature: 25° C.;
Mobile phase: A: H2O—CH3CN (2:98, v/v), B: H2O—CH3CN (10:90, v/v)
A: 25%+B: 75%, constant gradient elution;
Analysis time: 3 minutes.
The light circle was switched to 12/12 hour day/night in the clean grade chambers of rats. Humidity and temperature were 40-60% and 20-24° C., respectively. Every 4 rats were raised in a 36×24×19 cm^3 stainless rat cage. The rats took water freely and were fed special rat food regularly once daily. Only after one week adaption, the rats were used to conduct pharmacokinetics studies. 12 Sprague-Dawley rats were divided into 4 groups, 3 for each group.
The blood samples were collected 0 hour before the administration and 0.083, 0.25, 0.5, 1.0, 2, 4, 6, and 8 hours after the administration. The blood samples were collected at 250˜300 μL at each time point from posterior venous sinus of the eye after respiration anaesthesia with ether (the degree of anaesthesia was highly controlled). The blood was collected into test tubes containing heparin, and then was centrifuged to produce plasma. The obtained plasma was divided into 2 parts (50 μL for each part) and stored at −70° C. until analysis. […] After experiments, euthanasia was performed with CO2 gas.
Pharmacokinetics parameters of animal experiment of each group were calculated using InnaPhase Kinetica™ software (America).

[12] = Solubility; assay type: physicochemical
[13] = 50 mg/kg p.o. once daily d0-d20
[14] = 100 mg/kg p.o. once daily d0-d20
[15] = 200 mg/kg p.o. once daily d0-d20
[16] = concentration increased to 10^4 nM

Q: For `N#CC1(c2ccc(NC(=O)c3cccnc3NCc3ccncc3)cc2)CCCC1` [Mesylate of compound A], which IC50 [1] is on record?
A: The IC50 was 2.43 nM.

Q: And the IC50 [2]?
A: The IC50 was 420 nM.

Q: And the “stability (conclusion of stability experiments)” value [3]?
A: The value was “most stable”.

Q: And the “content after 6 Months Under Light” value ([3]; HPLC, initial purity 99.6%)?
A: Its value is 99.5%.

Q: What about the “content after 6 Months at 60° C.” value ([3]; HPLC, initial purity 99.6%) of the same compound?
A: Its value is 98.4%.

Q: What about the “content after 6 Months at Room Temperature” value ([3]; HPLC, initial purity 99.6%) of the same compound?
A: Its value is 99.5%.

Q: What about the “Weight after Removing Tumor, d0” value [4, 13] of the same compound?
A: The value was 16.1 g.

Q: And the “RTV x ± SD” value [4, 13]?
A: Its value is 5.42 ± 1.55.

Q: What about the T/C [4, 13] of the same compound?
A: The T/C was 62.5%.

Q: What about the “TV x ± SD, dn” value [4, 13] of the same compound?
A: Its value is 1250 ± 256.

Q: What about the “Weight after Removing Tumor, dn” value [4, 13] of the same compound?
A: Its value is 14.3 g.

Q: And the “TV x ± SD, d0” value ([4]; 50 mg/kg p.o.)?
A: Its value is 239 ± 49.

Q: What about the “Weight after Removing Tumor, d0” value [4, 14] of the same compound?
A: The value was 17.0 g.

Q: And the “RTV x ± SD” value [4, 14]?
A: Its value is 3.78 ± 1.46.

Q: What about the T/C [4, 14] of the same compound?
A: Its T/C is 43.6^a %.

Q: What about the “TV x ± SD, dn” value [4, 14] of the same compound?
A: Its value is 998 ± 296.

Q: And the “Weight after Removing Tumor, dn” value [4, 14]?
A: The value was 16.4 g.

Q: And the “TV x ± SD, d0” value ([4]; 100 mg/kg p.o.)?
A: Its value is 272 ± 37.

Q: And the “Weight after Removing Tumor, d0” value [4, 15]?
A: The value was 16.3 g.

Q: What about the “RTV x ± SD” value [4, 15] of the same compound?
A: The value was 2.21 ± 0.52.

Q: And the T/C [4, 15]?
A: The T/C was 25.5^a %.

Q: And the “TV x ± SD, dn” value [4, 15]?
A: The value was 571 ± 147.

Q: What about the “Weight after Removing Tumor, dn” value [4, 15] of the same compound?
A: The value was 15.6 g.

Q: And the T/C ([4]; 200 mg/kg p.o. once daily d0-d20, listed as mesylate of compound A)?
A: The T/C was 25.5%.

Q: And the “TV x ± SD, d0” value ([4]; 200 mg/kg p.o.)?
A: Its value is 260 ± 39.

Q: What about the tolerance ([4]; mouse, in vivo, po) of the same compound?
A: Its tolerance is “well tolerated”.

Q: What about the IC50 ([5]; average of 3 experiments, read-out: IC50 ± SD, EGFR1) of the same compound?
A: Its IC50 is over 10 µM.

Q: And the “inhibition on EGFR1” value [5, 16]?
A: Its value is “no inhibition”.

Q: And the IC50 [6]?
A: Its IC50 is 70.1 nM.

Q: What about the IC50 [7] of the same compound?
A: The IC50 was 537 nM.

Q: What about the IC50 ([8]; average of 3 experiments, read-out: IC50 ± SD, ErbB2) of the same compound?
A: Its IC50 is over 10 µM.

Q: And the “inhibition on ErbB2” value [8, 16]?
A: Its value is “no inhibition”.

Q: What about the IC50 [9] of the same compound?
A: Its IC50 is 349 nM.

Q: And the IC50 ([10]; average of 3 experiments, read-out: IC50 ± SD, FGFR1)?
A: The IC50 was over 10 µM.

Q: What about the “inhibition on FGFR1” value [10, 16] of the same compound?
A: Its value is “no inhibition”.

Q: What about the AUC(0-t) ([11]; 1 mmol/kg, AUC0→8 h Mol dose) of the same compound?
A: Its AUC(0-t) is 17200 ± 6980 ng·h/mL.

Q: What about the AUC(0-t) ([11]; 20 mg/kg, AUC0→8 h of compound A, Mean ± SD) of the same compound?
A: Its AUC(0-t) is 697 ± 283 ng·h/mL.

Q: And the concentration at 0 h ([11]; 20 mg/kg, Blood Concentration of compound A, 0 h)?
A: Its concentration at 0 h is 0 ng/mL.

Q: And the concentration at 4 h ([11]; 20 mg/kg, Blood Concentration of compound A, 4 h)?
A: The concentration at 4 h was 30.5 ng/mL.

Q: What about the concentration at 8 h ([11]; 20 mg/kg, Blood Concentration of compound A, 8 h) of the same compound?
A: The concentration at 8 h was 29.9 ng/mL.

Q: What about the Cmax ([11]; 20 mg/kg, Cmax of compound A, Mean ± SD) of the same compound?
A: Its Cmax is 489 ± 296 ng/mL.

Q: And the MRT ([11]; 20 mg/kg)?
A: The MRT was 1.18 h.

Q: What about the MRT ([11]; 20 mg/kg, Mean ± SD) of the same compound?
A: The MRT was 1.64 ± 0.48 h.

Q: And the half-life ([11]; 20 mg/kg, T1/2 of compound A, Mean ± SD)?
A: Its half-life is 52.2 ± 23.4 min.

Q: And the Tmax ([11]; 20 mg/kg)?
A: Its Tmax is 15 min.

Q: What about the Tmax ([11]; 20 mg/kg, Mean ± SD) of the same compound?
A: The Tmax was 19.8 ± 8.4 min.

Q: And the Solubility in water [12]?
A: Its Solubility in water is “Insoluble”.
